Assay results taken from patent US20120041036A1, “SUBSTITUTED ACYLGUANIDINE DERIVATIVES (AS AMENDED)” (priority 2009, published 2012).
pKd, pKi: −log10 of the molar value. Counter-ions that a name gives are not always drawn.

These compounds were tested on hyperactivity caused by MK-801 (assay: Improvement effect on increase in motion induced by methamphetamine or MK-801 in mice). Conditions: male ICR mouse; oral dose 0.03 mg/kg; MK-801 0.3 mg/kg i.p.; motion measured 60 minutes; significance P<0.05.
Type: in vivo
Method: The improvement effect of compound of formula (I) was evaluated by measuring the quantity of motion by IR irradiation when a compound was administered to a mouse in which hyperactivity was caused by methamphetamine (hereinafter, simply referred to as “MAP”) or MK-801, known as an animal model of schizophrenia.
An animal was taken out of a breeding cage, orally administered with a compound to be tested, and then placed into a cage for breeding. After 30 minutes, the animal was put into a cage for measurement, and the motion with the compound to be tested alone was measured. Further, after 30 to 90 minutes, the animal was taken out, and intraperitoneally administered with a drug for increasing the motion (MAP; 1 mg/kg or MK-801; 0.3 mg/kg, dissolved in a physiological saline, respectively). Then, the motion for a certain period of time (60 minutes) was measured by using a motion measurement device (CompACT AMS from Muromachi Kikai Co., Ltd.) by means of an infrared sensor.
For a normal mouse (a mouse administered with physiological saline) and a mouse administered with a drug for increasing the motion, a Student's T test was performed for evaluation for each interval. For a group administered with the compound to be tested, an assay was performed using a solvent (vehicle) group and a Dunnett's T test. […]

Row | SMILES | inhibition of hyperactivity (motion) caused by MK-801
1 | N#Cc1ccc2ccc(C(=O)N=C(N)N)cc2c1-c1c(F)cccc1Cl [Example 1, 8-(2-chloro-6-fluorophenyl)-7-cyano-N-(diaminomethylene)-2-naphthamide hydrochloride] | significantly inhibited

These compounds were tested against T1, human 5-HT5A receptor (Homo sapiens, UniProt P47898) (assay: Test on a human 5-HT5A receptor binding inhibition ([3H]5-CT, membrane from HEK293 cells)). Conditions: human 5-HT5A receptor membrane; read-out: Kd value of [3H]5-CT determined from Scatchard analysis.
T1 construct: expressed in transfected cells; membrane preparation
T1 sequence (P47898 whole entry): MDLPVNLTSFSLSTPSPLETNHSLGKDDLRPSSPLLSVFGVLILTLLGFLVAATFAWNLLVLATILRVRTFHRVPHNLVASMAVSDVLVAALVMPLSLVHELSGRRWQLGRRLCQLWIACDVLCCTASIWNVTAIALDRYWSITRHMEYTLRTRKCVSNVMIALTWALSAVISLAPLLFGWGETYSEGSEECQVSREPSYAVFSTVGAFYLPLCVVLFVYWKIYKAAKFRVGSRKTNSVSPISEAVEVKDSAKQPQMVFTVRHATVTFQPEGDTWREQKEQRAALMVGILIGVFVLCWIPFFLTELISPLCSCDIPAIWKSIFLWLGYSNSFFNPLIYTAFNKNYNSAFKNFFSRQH
Method: The ORF (open reading frame; protein coding region) of a human 5-HT5A receptor (Genbank AF498985) was cloned from a human hippocampus cDNA library, and then inserted into a pCR2.1 vector (Invitrogen), and Escherichia coli containing the plasmid was cultured in a large amount. Next, the full-length cDNA sequence of the human 5-HT5A receptor was analyzed, and recombined into a pCDNA3.1 vector (Invitrogen) as an expression vector and cultured in a large amount. HEK293 established cells (ATCC) derived from the human fetal kidney were seeded, the expression plasmid (1 μg) obtained above were added thereto with LIPOFECTAMINE 2000 (Invitrogen; 2 μl), the gene was transfected into HEK293 cells, and the expression cells were screened with a drug-resistant marker, Geneticin (G418 sulfate 500 μg/ml; Kanto Chemical Co., Inc.). Thus prepared recombinant cells which expressed the gene were cultured in a medium containing D-MEM (Dulbecco's modified eagle medium, Sigma), 10% FCS (Fetal calf serum: fetal bovine serum), 1% Pc./Sm (Penicillin/Streptomycin, Invitrogen), and 500 μg/ml G418 for 3 days. These experimental operations followed a manual for gene operation experiment and an instruction appended in a reagent, and the like, such as a known method (Sambrook, J. et al, Molecular Cloning—A Laboratory Manual”, Cold Spring Harbor laboratory, NY, 1989).
HEK293 cells for forced expressions of a human 5-HT5A receptor were cultured in a F500 plate, and scraped with a scraper. After centrifugation, the precipitate was collected, and an incubation buffer (50 mM Tris (HCl) (pH 7.4), 10 mM MgSO4, and 0.5 mM EDTA (ethylenediamine tetraacetic acid)) was added thereto. After homogenization, it was further centrifuged, and the incubation buffer was added to the precipitate, followed by thoroughly suspending. The operation was repeated, and protein concentration was measured, thereby completing preparation of the membrane.
A solution of the compound to be tested and 100 μM 5-CT (5-carboxamidetriptamine) in DMSO was added to a 96-well plate at 2 μl/well, suspended in an incubation buffer, and a membrane from HEK293 cells for forced expressions of a human 5-HT5A receptor prepared at 200 μg/ml was added at 100 μl/well. After incubation at room temperature for 15 minutes, a [^3H]5-CT solution (2 nM [^3H]5-CT, incubation buffer) was added thereto at 100 μl/well.
Separately, 100 μl of the solution was distributed into a liquid scintillation vial, and 2 ml of Aquasol II (registered trademark) was added thereto, followed by stirring. Then, radioactivity was measured by a liquid scintillation counter. It was incubated at 37° C. for 60 minutes. The reaction mixture was sucked into 96-well GF/C filter plate that had been pre-treated with 0.2% polyethyleneimine, and washed six times with an ice-cooled, 50 mM Tris (pH 7.5) buffer. The GF/C filter plate was dried.
Microscint TMPS (registered trademark) was added thereto at 40 μl/well. Radioactivity remaining on the GF/C filter plate was measured by a top counter.
The [^3H]5-CT binding inhibiting activity by the compound to be tested in each experiment was determined as an IC50 value with a radioactivity upon addition of DMSO alone being 0% inhibition, and a radioactivity upon addition of 1 μM 5-CT being 100% inhibition. Separately, Ki values were calculated from the Kd value of the [^3H]5-CT determined from Scatchard analysis, by the following equation.

Row | SMILES | pKd
2 | NCCc1c[nH]c2ccc(C(N)=O)cc12 [[^3H]5-CT, 5-carboxamidetriptamine, reference compound] | 8.31

Same assay, conditions: membrane from HEK293 cells expressing human 5-HT5A receptor; Ki calculated from IC50 and Kd of [3H]5-CT

Row | pKi | SMILES
3 | 6.52 to 7.52 | N#Cc1ccc2ccc(C(=O)N=C(N)N)cc2c1-c1ccncc1Cl [Example 3]
4 | 6.52 to 7.52 | N#Cc1ccc2ccc(C(=O)N=C(N)N)cc2c1-c1ccncc1F [Example 4]
5 | 7.52 to 9.00 | N#Cc1ccc2ccc(C(=O)N=C(N)N)cc2c1-c1ccc(F)cc1F [Example 6]
6 | 7.52 to 9.00 | N#Cc1ccc2ccc(C(=O)N=C(N)N)cc2c1-c1c(F)cccc1F [Example 7]
7 | 7.52 to 9.00 | N#Cc1ccc2ccc(C(=O)N=C(N)N)cc2c1-c1ccccc1Cl [Example 9]
8 | 7.52 to 9.00 | N#Cc1ccc2ccc(C(=O)N=C(N)N)cc2c1-c1ccccc1F [Example 10]
9 | 7.52 to 9.00 | N#Cc1ccc2ccc(C(=O)N=C(N)N)cc2c1-c1ccc(F)cc1 [Example 14]
10 | 6.52 to 7.52 | N#Cc1ccc2ccc(C(=O)N=C(N)N)cc2c1C1=CCOCC1 [Example 16]
11 | 7.52 to 9.00 | N#Cc1ccc2ccc(C(=O)N=C(N)N)cc2c1-c1c(F)cncc1F [Example 18]
12 | 7.52 to 9.00 | N#Cc1ccc2ccc(C(=O)N=C(N)N)cc2c1-c1ccccc1 [Example 20]
13 | 6.52 to 7.52 | N#Cc1ccc2ccc(C(=O)N=C(N)N)cc2c1C1CC1 [Example 21]

The remaining lines, values behind:

Row | SMILES | pKi
14 | N#Cc1ccc2ccc(C(=O)N=C(N)N)cc2c1-c1c(F)cccc1Cl [Example 1, 8-(2-chloro-6-fluorophenyl)-7-cyano-N-(diaminomethylene)-2-naphthamide hydrochloride] | 8.37
15 | N#Cc1ccc2ccc(C(=O)N=C(N)N)cc2c1-c1c(F)cc(F)cc1F [Example 2] | 7.52 to 9.00
16 | N#Cc1cc(F)c(-c2c(F)cc(F)cc2F)c2cc(C(=O)N=C(N)N)ccc12 [Example 5] | 7.52 to 9.00
17 | COc1cccc(F)c1-c1c(C#N)ccc2ccc(C(=O)N=C(N)N)cc12 [Example 8] | 7.52 to 9.00
18 | CSc1ccc2ccc(C(=O)N=C(N)N)cc2c1-c1c(F)cc(F)cc1F [Example 12] | 7.52 to 9.00
19 | CS(=O)(=O)c1ccc2ccc(C(=O)N=C(N)N)cc2c1-c1c(F)cc(F)cc1F [Example 13] | 6.52 to 7.52
20 | COc1cc(C#N)ccc1-c1c(C#N)ccc2ccc(C(=O)N=C(N)N)cc12 [Example 15] | 6.52 to 7.52
21 | N#Cc1ccc2ccc(C(=O)N=C(N)N)cc2c1-c1c(F)cc(CO)cc1F [Example 17] | 6.52 to 7.52
22 | N#Cc1cc(F)c(-c2ccncc2)c2cc(C(=O)N=C(N)N)ccc12 [Example 19] | 6.52 to 7.52
